Source: patent US12486267B2, “Imidazo[1,2-A]pyridine and [1,2,4]triazolo[1,5-A]pyridine derivatives as TLR9 inhibitors for the treatment of fibrosis” (BRISTOL-MYERS SQUIBB COMPANY, priority 2020, dated 2025)

Key:
Assay type in all cases: cell-based
human TLR8 = target: T1, human TLR8 (Homo sapiens, UniProt Q9NR97); experiment: TLR8 inhibition reporter assay (HEK-Blue cells, SEAP reporter); conditions: HEK-Blue cells overexpressing human TLR8; stimulated with R848 15.9 μM; 22 hour incubation; SEAP readout
T1 sequence (Q9NR97 27-1041): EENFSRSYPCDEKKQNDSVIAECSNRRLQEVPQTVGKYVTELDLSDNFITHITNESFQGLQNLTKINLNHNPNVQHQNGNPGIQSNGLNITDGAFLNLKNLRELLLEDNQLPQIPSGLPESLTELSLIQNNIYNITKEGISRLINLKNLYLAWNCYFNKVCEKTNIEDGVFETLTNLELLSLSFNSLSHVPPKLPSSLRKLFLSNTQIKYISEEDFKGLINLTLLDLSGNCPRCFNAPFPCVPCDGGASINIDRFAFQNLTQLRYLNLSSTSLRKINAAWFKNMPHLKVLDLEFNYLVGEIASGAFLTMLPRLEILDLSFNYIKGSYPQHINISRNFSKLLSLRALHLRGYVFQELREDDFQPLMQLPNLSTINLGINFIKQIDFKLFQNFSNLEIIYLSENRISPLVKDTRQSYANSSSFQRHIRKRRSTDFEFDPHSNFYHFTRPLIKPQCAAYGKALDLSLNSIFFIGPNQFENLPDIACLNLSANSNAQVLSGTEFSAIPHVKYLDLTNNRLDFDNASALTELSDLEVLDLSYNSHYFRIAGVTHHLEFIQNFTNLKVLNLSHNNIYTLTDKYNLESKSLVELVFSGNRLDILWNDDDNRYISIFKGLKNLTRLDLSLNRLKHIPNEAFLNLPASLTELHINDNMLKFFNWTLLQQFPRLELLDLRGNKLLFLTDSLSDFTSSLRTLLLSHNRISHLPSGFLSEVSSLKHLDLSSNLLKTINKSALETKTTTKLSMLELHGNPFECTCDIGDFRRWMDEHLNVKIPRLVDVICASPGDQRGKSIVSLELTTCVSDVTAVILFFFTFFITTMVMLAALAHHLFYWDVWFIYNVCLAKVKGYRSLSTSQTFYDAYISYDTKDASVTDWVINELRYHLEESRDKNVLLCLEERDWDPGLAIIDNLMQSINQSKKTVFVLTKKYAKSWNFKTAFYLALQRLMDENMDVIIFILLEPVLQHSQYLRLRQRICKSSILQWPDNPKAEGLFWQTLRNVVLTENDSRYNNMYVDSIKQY
Experimental: (§1) TLR7/8/9 Inhibition Reporter Assays
(§2) HEK-Blue™-cells (Invivogen) overexpressing human TLR7, TLR8 or TLR9 receptors were used for screening inhibitors of these receptors using an inducible SEAP (secreted embryonic alkaline phosphatase) reporter gene under the control of the […] minimal promoter fused to five NF-κB and AP-1-binding sites. Briefly, cells are seeded into Greiner 384 well plates (15000 cells per well for TLR7, 20,000 for TLR8 and 25,000 for TLR9) and then treated with test compounds in DMSO to yield a final dose response concentration range of 0.05 nM-50 μM. After a 30 minute compound pre-treatment at room temperature, the cells are then stimulated with a TLR7 ligand (gardiquimod at a final concentration of 7.5 μM), TLR8 ligand (R848 at a final concentration of 15.9 μM) or TLR9 ligand (ODN2006 at a final concentration of 5 nM) to activate NF-κB and AP-1 which induce the production of SEAP. After a 22 hour incubation at 37° C., 5% CO2, SEAP levels are determined with the addition of HEK-Blue™ Detection reagent (Invivogen), a cell culture medium that allows for detection of SEAP, according to manufacturer's specifications. The percent inhibition is determined as the % reduction in the HEK-Blue signal present in wells treated with agonist plus DMSO alone compared to wells treated with a known inhibitor.

human TLR7 = target: T2, human TLR7 (Homo sapiens, UniProt Q9NYK1); experiment: TLR7 inhibition reporter assay (HEK-Blue cells, SEAP reporter); conditions: HEK-Blue cells overexpressing human TLR7; stimulated with gardiquimod 7.5 μM; 22 hour incubation; SEAP readout
T2 sequence (Q9NYK1 27-1049): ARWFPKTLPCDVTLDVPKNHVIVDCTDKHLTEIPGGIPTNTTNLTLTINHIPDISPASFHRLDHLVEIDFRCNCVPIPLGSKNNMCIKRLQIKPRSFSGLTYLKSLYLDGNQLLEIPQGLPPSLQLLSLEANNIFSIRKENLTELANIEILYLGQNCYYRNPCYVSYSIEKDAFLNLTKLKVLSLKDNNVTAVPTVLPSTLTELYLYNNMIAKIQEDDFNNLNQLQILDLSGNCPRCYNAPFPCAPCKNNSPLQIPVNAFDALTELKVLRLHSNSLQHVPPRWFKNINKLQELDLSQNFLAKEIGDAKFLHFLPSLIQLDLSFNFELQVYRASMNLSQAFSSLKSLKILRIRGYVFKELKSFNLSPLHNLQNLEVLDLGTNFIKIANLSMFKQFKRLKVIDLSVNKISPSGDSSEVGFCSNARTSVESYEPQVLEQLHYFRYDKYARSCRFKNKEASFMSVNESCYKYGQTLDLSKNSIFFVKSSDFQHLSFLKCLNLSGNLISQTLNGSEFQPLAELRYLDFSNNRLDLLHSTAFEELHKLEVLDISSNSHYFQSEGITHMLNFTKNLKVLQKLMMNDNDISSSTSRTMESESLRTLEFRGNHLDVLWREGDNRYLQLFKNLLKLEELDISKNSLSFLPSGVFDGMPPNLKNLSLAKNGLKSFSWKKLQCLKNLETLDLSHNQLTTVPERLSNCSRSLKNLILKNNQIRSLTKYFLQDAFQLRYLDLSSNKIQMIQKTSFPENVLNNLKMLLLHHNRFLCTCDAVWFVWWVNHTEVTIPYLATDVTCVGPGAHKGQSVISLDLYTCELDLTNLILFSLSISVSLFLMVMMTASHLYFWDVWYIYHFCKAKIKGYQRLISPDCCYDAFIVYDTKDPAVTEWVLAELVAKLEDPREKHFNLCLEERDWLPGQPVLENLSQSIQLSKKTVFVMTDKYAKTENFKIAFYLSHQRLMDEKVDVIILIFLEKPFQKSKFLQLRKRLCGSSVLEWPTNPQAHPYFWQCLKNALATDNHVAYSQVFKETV
Experimental: as §1, §2

human TLR9 = target: T3, human TLR9 (Homo sapiens, UniProt Q9NR96); experiment: TLR9 inhibition reporter assay (HEK-Blue cells, SEAP reporter); conditions: HEK-Blue cells overexpressing human TLR9; stimulated with ODN2006 5 nM; 22 hour incubation; SEAP readout
T3 sequence (Q9NR96 26-1032): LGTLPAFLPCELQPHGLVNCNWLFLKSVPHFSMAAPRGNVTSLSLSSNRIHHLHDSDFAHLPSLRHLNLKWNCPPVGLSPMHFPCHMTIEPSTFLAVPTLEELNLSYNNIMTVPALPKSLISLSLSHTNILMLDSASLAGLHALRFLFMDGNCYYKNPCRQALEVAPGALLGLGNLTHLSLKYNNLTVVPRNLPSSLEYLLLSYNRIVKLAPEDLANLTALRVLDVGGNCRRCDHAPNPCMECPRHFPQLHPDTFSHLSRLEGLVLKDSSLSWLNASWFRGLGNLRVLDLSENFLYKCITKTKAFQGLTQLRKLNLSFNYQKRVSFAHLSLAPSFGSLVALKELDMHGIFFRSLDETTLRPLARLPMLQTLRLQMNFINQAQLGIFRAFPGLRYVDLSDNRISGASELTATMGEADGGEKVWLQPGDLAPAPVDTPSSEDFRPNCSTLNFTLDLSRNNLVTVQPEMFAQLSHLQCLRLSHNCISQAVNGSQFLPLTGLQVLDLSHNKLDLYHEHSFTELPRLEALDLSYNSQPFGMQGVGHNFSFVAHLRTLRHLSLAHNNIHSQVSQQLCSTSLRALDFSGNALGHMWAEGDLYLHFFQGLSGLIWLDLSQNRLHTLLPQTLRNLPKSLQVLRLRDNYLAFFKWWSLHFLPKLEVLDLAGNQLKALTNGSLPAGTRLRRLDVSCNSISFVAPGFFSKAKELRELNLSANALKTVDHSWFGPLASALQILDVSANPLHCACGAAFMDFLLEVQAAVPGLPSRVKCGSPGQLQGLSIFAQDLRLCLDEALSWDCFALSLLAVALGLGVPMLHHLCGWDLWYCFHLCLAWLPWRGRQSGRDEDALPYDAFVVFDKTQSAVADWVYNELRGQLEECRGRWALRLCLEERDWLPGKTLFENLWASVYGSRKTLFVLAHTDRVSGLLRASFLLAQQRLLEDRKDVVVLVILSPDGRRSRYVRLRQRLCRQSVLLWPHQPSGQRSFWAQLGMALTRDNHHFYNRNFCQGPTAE
Method in brief: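 HEK-Blue cells with NF-κB/AP-1-driven SEAP pre-treated 30 min with compound (0.05 nM–50 μM), then stimulated with gardiquimod 7.5 μM (TLR7), R848 15.9 μM (TLR8) or ODN2006 5 nM (TLR9). SEAP detected after 22 h at 37 °C; percent inhibition relative to agonist-plus-DMSO and known-inhibitor wells.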

Row | IC50 (human TLR8) | IC50 (human TLR7) | IC50 (human TLR9) | SMILES
1 | > 50000 nM | > 50000 nM | 68 nM | COc1ccc(-c2cn3c(n2)CCC(C2CCN(C4CC5(C4)CN(CC4CC4)C5)CC2)C3)cc1OC (racemic) [Example 51, 6-(1-(2-(cyclopropylmethyl)-2-azaspiro[3.3]heptan-6-yl)piperidin-4-yl)-2-(3,4-dimethoxyphenyl)-5,6,7,8-tetrahydroimidazo[1,2-a]pyridine]
2 | > 50000 nM | 18000 nM | 114 nM | COc1ccc(-c2cn3c(n2)CCC(C2CCN(C4CC5(C4)CN(CC(C)C)C5)CC2)C3)cc1OC (racemic) [Example 52, 2-(3,4-dimethoxyphenyl)-6-(1-(2-isobutyl-2-azaspiro[3.3]heptan-6-yl)piperidin-4-yl)-5,6,7,8-tetrahydroimidazo[1,2-a]pyridine]
3 | > 50000 nM | 1600 nM | 38 nM | COc1ccc(-c2cn3c(n2)CCC(C2CCN(C4CCN(CC5CC5)CC4)CC2)C3)cc1OC (racemic) [Example 55, 6-(1′-(cyclopropylmethyl)-[1,4′-bipiperidin]-4-yl)-2-(3,4-dimethoxyphenyl)-5,6,7,8-tetrahydroimidazo[1,2-a]pyridine]
4 | 15000 nM | 13000 nM | 60 nM | COc1ccc(-c2cn3c(n2)CC(C2CCN(C4CCN(C(C)C)CC4)CC2)CC3)cc1OC (racemic) [Example 58, 2-(3,4-dimethoxyphenyl)-7-(1′-isopropyl-[1,4′-bipiperidin]-4-yl)-5,6,7,8-tetrahydroimidazo[1,2-a]pyridine]
5 | > 50000 nM | 7700 nM | 205 nM | COc1ccc(-c2cn3c(n2)CC(C2CCN(C4CCN(CC(C)C)CC4)CC2)CC3)cc1OC (racemic) [Example 59, 2-(3,4-dimethoxyphenyl)-7-(1′-isobutyl-[1,4′-bipiperidin]-4-yl)-5,6,7,8-tetrahydroimidazo[1,2-a]pyridine]
6 | > 50000 nM | 3300 nM | 48 nM | COc1ccc(-c2cn3cc(C4CCN(C5CC6CCC(C5)N6CC(C)C)CC4)cc(C)c3n2)cc1OC (single isomer, unassigned) [Example 18, 2-(3,4-dimethoxyphenyl)-6-(1-(8-isobutyl-8-azabicyclo[3.2.1]octan-3-yl)piperidin-4-yl)-8-methylimidazo[1,2-a]pyridine]
7 | > 50000 nM | 2400 nM | 58 nM | COc1ccc(-c2cn3cc(C4CCN(C5CC6CCC(C5)N6CC(C)C)CC4)cc(C)c3n2)cc1OC (single isomer, unassigned) [Example 19, 2-(3,4-dimethoxyphenyl)-6-(1-(8-isobutyl-8-azabicyclo[3.2.1]octan-3-yl)piperidin-4-yl)-8-methylimidazo[1,2-a]pyridine]
8 | > 50000 nM | 1500 nM | 23 nM | COc1ccc(-c2cn3cc(C4CCN(C5CC6CCC(C5)N6CC5CC5)CC4)cc(C)c3n2)cc1OC (single isomer, unassigned) [Example 20, 6-(1-(8-(cyclopropylmethyl)-8-azabicyclo[3.2.1]octan-3-yl)piperidin-4-yl)-2-(3,4-dimethoxyphenyl)-8-methylimidazo[1,2-a]pyridine]
9 | > 50000 nM | 3000 nM | 126 nM | COc1ccc(-c2cn3cc(C4CCN(C5CC6CCC(C5)N6CC5CC5)CC4)cc(C)c3n2)cc1OC (single isomer, unassigned) [Example 21, 6-(1-(8-(cyclopropylmethyl)-8-azabicyclo[3.2.1]octan-3-yl)piperidin-4-yl)-2-(3,4-dimethoxyphenyl)-8-methylimidazo[1,2-a]pyridine]
10 | > 50000 nM | 1200 nM | 30 nM | COc1ccc(-c2cn3cc(C4CCN(C5CC6CCC(C5)N6C(C)C)CC4)cc(C)c3n2)cc1OC (single isomer, unassigned) [Example 22, 2-(3,4-dimethoxyphenyl)-6-(1-(8-isopropyl-8-azabicyclo[3.2.1]octan-3-yl)piperidin-4-yl)-8-methylimidazo[1,2-a]pyridine]
